Source: PubChem BioAssay (NCI)
Values joined by “and” are separate entries in the source; they are usually repeats but may differ in a detail not shown here. Equal entries are not always repeated.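 Cells were grown in 96-well plates and exposed to each compound for 48 hours at five concentrations; endpoints were interpolated linearly between bracketing concentrations, or set to the highest concentration if not reached. GI50 = concentration required for 50% inhibition of growth. At the TGI there is no net growth.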

Key:
Assay in all cases: inhibition of tumour cell growth, NCI panel, 48 h
[1] = tested on: HL-60(TB) leukemia
[2] = tested on: A498 renal
[3] = tested on: UO-31 renal
[4] = tested on: U251 CNS
[5] = tested on: EKVX NSCLC
[6] = tested on: HOP-62 NSCLC
[7] = tested on: CAKI-1 renal
[8] = tested on: T-47D breast
[9] = tested on: COLO 205 colon
[10] = tested on: IGROV1 ovarian
[11] = tested on: SK-MEL-5 melanoma
[12] = tested on: ACHN renal
[13] = tested on: SF-539 CNS
[14] = tested on: OVCAR-3 ovarian
[15] = tested on: TK-10 renal
[16] = tested on: SR leukemia
[17] = tested on: MOLT-4 leukemia
[18] = tested on: SNB-19 CNS
[19] = tested on: MDA-N
[20] = tested on: 786-0 renal
[21] = tested on: SK-MEL-28 melanoma
[22] = tested on: UACC-62 melanoma
[23] = tested on: HCT-116 colon
[24] = tested on: KM12 colon
[25] = tested on: RPMI-8226 leukemia
[26] = tested on: HT29 colon
[27] = tested on: HCC-2998 colon
[28] = tested on: MDA-MB-435
[29] = tested on: DU-145 prostate
[30] = tested on: SNB-75 CNS
[31] = tested on: BT-549 breast
[32] = tested on: NCI-H522 lung
[33] = tested on: CCRF-CEM leukemia
[34] = tested on: NCI-H226 lung
[35] = tested on: SF-268 CNS
[36] = tested on: OVCAR-4 ovarian
[37] = tested on: HCT-15 colon
[38] = tested on: SK-MEL-2 melanoma
[39] = tested on: HOP-92 NSCLC
[40] = tested on: PC-3 prostate
[41] = tested on: MDA-MB-231 breast
[42] = tested on: OVCAR-5 ovarian
[43] = tested on: LOX IMVI melanoma
[44] = tested on: A549 NSCLC
[45] = tested on: NCI-H23 lung
[46] = tested on: M14 melanoma
[47] = tested on: K-562 leukemia
[48] = tested on: RXF 393 renal
[49] = tested on: MCF7 breast
[50] = tested on: MALME-3M melanoma
[51] = tested on: UACC-257 melanoma
[52] = tested on: SW-620 colon
[53] = tested on: OVCAR-8 ovarian
[54] = tested on: SK-OV-3 ovarian
[55] = tested on: SN12C renal
[56] = tested on: NCI-H460 lung
[57] = tested on: SF-295 CNS
[58] = tested on: NCI/ADR-RES ovarian
[59] = tested on: HS 578T breast

CCNC(=O)CCC(C)[C@H]1CCC2C3C(C[C@H](OC(C)=O)[C@@]21C)[C@@]1(C)CCC2(C[C@H]1C[C@H]3OC(C)=O)OOC1(CCC(C)CC1)OO2 (some centres not stated)
TGI [1]: 3.74 µM and 4.85 µM | GI50 [2]: > 100 µM and 25.6 µM | TGI [2]: > 100 µM | TGI [3]: 2.38 µM and 2.71 µM | TGI [4]: 7.32 µM and 3.23 µM | TGI [5]: 2.69 µM | TGI [6]: 3.56 µM and 2.09 µM | TGI [7]: 3.93 µM and 2.24 µM | TGI [8]: 5.18 µM and 3.84 µM | TGI [9]: 3.18 µM and 3.2 µM | TGI [10]: 3.66 µM and 2.87 µM | TGI [11]: 4.43 µM and 3.09 µM | TGI [12]: 4.65 µM and 3.13 µM | TGI [13]: 7.44 µM and 3.7 µM | TGI [14]: 3.62 µM | TGI [15]: 6.74 µM and 5.13 µM | TGI [16]: 3.32 µM | GI50 [17]: 0.658 µM and 1.72 µM | TGI [17]: 2.66 µM and 5.47 µM | TGI [18]: > 100 µM and 24.4 µM | TGI [19]: 10.3 µM and 3.92 µM | TGI [20]: 7.66 µM and 3.44 µM | TGI [21]: > 100 µM and 17.4 µM | TGI [22]: 10.8 µM and 6.15 µM | TGI [23]: 6.01 µM and 4.28 µM | TGI [24]: 4.3 µM and 3.25 µM | GI50 [25]: 0.574 µM and 1.39 µM | TGI [25]: 2.64 µM and 3.81 µM | GI50 [26]: 1.19 µM and 3.04 µM | TGI [27]: 7.3 µM and 3.87 µM | TGI [28]: 5.22 µM and 3.44 µM | TGI [29]: 3.22 µM and 6.19 µM | TGI [30]: 5.89 µM and 5.67 µM | TGI [31]: 5.94 µM and 3.2 µM | TGI [32]: 3.7 µM and 3.07 µM | TGI [33]: 3.2 µM and 3.94 µM | TGI [34]: 9.4 µM and 3.85 µM | GI50 [35]: 4.22 µM and 1.59 µM | TGI [36]: 4.09 µM and 3.17 µM | TGI [37]: 20.4 µM and 4.62 µM | TGI [38]: 3.91 µM and 3.21 µM | TGI [39]: 7.31 µM and 3.38 µM | GI50 [40]: 0.716 µM and 2.06 µM | TGI [40]: > 100 µM and 11.4 µM | TGI [41]: 6.13 µM | TGI [42]: > 100 µM | TGI [43]: 6.29 µM and 4.61 µM | TGI [44]: 8.28 µM and 4.02 µM | TGI [45]: 9.01 µM and 5.24 µM | TGI [46]: 43 µM and 5.24 µM | TGI [47]: > 100 µM | GI50 [48]: 9.58 µM and 3.18 µM | TGI [48]: > 100 µM and 16.5 µM | TGI [49]: > 100 µM | TGI [50]: 6.1 µM and 3.92 µM | TGI [51]: > 100 µM and 96.3 µM

C=C(C(=O)OC)[C@H]1CC/C(C)=C/CC[C@@](C)(O)C=CC[C@@]2(C)O[C@@H]2C1
TGI [2]: 87.2 µM | TGI [52]: > 100 µM | TGI [3]: 52.3 µM | TGI [4]: > 100 µM | TGI [5]: > 100 µM | TGI [6]: > 100 µM | TGI [7]: 50.2 µM | TGI [8]: > 100 µM | TGI [9]: 31 µM | TGI [53]: 27 µM | TGI [10]: > 100 µM | TGI [11]: 20.1 µM | TGI [54]: > 100 µM | TGI [12]: > 100 µM | TGI [13]: 56.9 µM | TGI [14]: 42.4 µM | TGI [55]: > 100 µM | TGI [15]: > 100 µM | TGI [16]: 33.8 µM | TGI [17]: 31.9 µM | TGI [18]: > 100 µM | TGI [19]: > 100 µM | TGI [20]: 34.8 µM | TGI [21]: 41 µM | TGI [22]: > 100 µM | TGI [23]: 36.6 µM | TGI [24]: > 100 µM | TGI [25]: 41.5 µM | TGI [26]: 28.5 µM | TGI [27]: > 100 µM | TGI [28]: 46.1 µM | TGI [29]: 84.1 µM | TGI [30]: > 100 µM | TGI [31]: > 100 µM | TGI [34]: > 100 µM | TGI [35]: > 100 µM | TGI [56]: > 100 µM | TGI [36]: > 100 µM | TGI [37]: 73.6 µM | TGI [38]: > 100 µM | TGI [39]: 70.2 µM | TGI [40]: > 100 µM | TGI [41]: > 100 µM | TGI [42]: > 100 µM | TGI [57]: > 100 µM | TGI [44]: > 100 µM | TGI [45]: 61 µM | TGI [58]: 78.6 µM | TGI [46]: > 100 µM | TGI [48]: > 100 µM | TGI [49]: > 100 µM | TGI [51]: > 100 µM

CN(C)CCCNC(=O)CCNC(=O)c1cc(NC(=O)c2cc(NC(=O)c3cc(NC(=O)CCCNC(=O)c4cc(NC(=O)c5cc(NC(=O)c6nccn6C)cn5C)cn4C)cn3C)cn2C)cn1C
TGI [1]: > 100 µM | TGI [2]: > 100 µM | TGI [52]: > 100 µM | TGI [59]: > 100 µM | TGI [3]: > 100 µM | TGI [4]: > 100 µM | TGI [5]: > 100 µM | TGI [6]: > 100 µM | TGI [7]: > 100 µM | TGI [9]: > 100 µM | TGI [53]: > 100 µM | TGI [10]: > 100 µM | TGI [11]: > 100 µM | TGI [54]: > 100 µM | TGI [12]: > 100 µM | TGI [13]: > 100 µM | TGI [14]: > 100 µM | TGI [55]: > 100 µM | TGI [15]: > 100 µM | TGI [17]: > 100 µM | TGI [18]: > 100 µM | TGI [19]: > 100 µM | TGI [20]: > 100 µM | TGI [21]: > 100 µM | TGI [23]: > 100 µM | TGI [24]: > 100 µM | TGI [25]: > 100 µM | TGI [26]: > 100 µM | TGI [27]: > 100 µM | TGI [28]: > 100 µM | TGI [30]: > 100 µM | TGI [32]: > 100 µM | TGI [33]: > 100 µM | TGI [34]: > 100 µM | TGI [35]: > 100 µM | TGI [56]: > 100 µM | TGI [36]: > 100 µM | TGI [37]: > 100 µM | TGI [38]: > 100 µM | TGI [39]: > 100 µM | TGI [40]: > 100 µM | TGI [41]: > 100 µM | TGI [42]: > 100 µM | TGI [43]: > 100 µM | TGI [57]: > 100 µM | TGI [44]: > 100 µM | TGI [45]: > 100 µM | TGI [58]: > 100 µM | TGI [46]: > 100 µM | TGI [47]: > 100 µM | TGI [48]: > 100 µM | TGI [49]: > 100 µM | TGI [50]: > 100 µM | TGI [51]: > 100 µM
